Measured values as given in US11351172B2, “Pharmaceutical composition and use for applying ribociclib in phosphodiesterase 4-mediated disease treatment of patient and inhibition of phosphodiesterase 4 activity” (Chang Gung University, priority 2019, dated 2022).

Legend:
PDE7A = target: T1, PDE7A (Homo sapiens, UniProt Q13946); assay: PDE enzymatic activity, HTRF cAMP dynamic test; assay type: biochemical; settings: 0.1 to 30 μM; FIG. 1F
T1 construct: purchased BPS bioscience
Protocol: (§1) Enzymatic activities of PDE subtypes were analyzed according to the user manual of HTRF® package insert cAMP dynamic tests (Cisbio bioassays, catalog number 62AM4PEB). Ribociclib was dissolved in DMSO (as solvent) and then added to PDE assay buffer which contains PDE4A, PDE4B, PDE4C, PDE4D, PDE3B or PDE7A (sold by BPS bioscience). The final concentration of Ribociclib was 0.1 to 30 μM. Then, the mixtures were incubated for 10 minutes at 37° C. PDE assay buffer which was added by DMSO (solvent, marked as “−” in FIGS. 1A-1F) instead of Ribociclib was as a control in this experiment. 60 nM of cAMP was added to each reagent and then incubated for 45 minutes at 37° C. After incubation, cAMP-d2 and anti-cAMP-cryptate were added to each reagent and react at room temperature for 1 hour away from light. Finally, the reagents were quantified by the luminometer (TECAN infinite 200 Pro) to detect enzymatic activities of PDE subtypes.

PDE4C = target: T2, PDE4C (Homo sapiens, UniProt Q08493); assay: PDE enzymatic activity, HTRF cAMP dynamic test; assay type: biochemical; settings: 3 μM, 10 μM and 30 μM; compared with DMSO control; n=6; FIG. 1C
T2 construct: purchased BPS bioscience
T2 sequence (Q08493 whole entry): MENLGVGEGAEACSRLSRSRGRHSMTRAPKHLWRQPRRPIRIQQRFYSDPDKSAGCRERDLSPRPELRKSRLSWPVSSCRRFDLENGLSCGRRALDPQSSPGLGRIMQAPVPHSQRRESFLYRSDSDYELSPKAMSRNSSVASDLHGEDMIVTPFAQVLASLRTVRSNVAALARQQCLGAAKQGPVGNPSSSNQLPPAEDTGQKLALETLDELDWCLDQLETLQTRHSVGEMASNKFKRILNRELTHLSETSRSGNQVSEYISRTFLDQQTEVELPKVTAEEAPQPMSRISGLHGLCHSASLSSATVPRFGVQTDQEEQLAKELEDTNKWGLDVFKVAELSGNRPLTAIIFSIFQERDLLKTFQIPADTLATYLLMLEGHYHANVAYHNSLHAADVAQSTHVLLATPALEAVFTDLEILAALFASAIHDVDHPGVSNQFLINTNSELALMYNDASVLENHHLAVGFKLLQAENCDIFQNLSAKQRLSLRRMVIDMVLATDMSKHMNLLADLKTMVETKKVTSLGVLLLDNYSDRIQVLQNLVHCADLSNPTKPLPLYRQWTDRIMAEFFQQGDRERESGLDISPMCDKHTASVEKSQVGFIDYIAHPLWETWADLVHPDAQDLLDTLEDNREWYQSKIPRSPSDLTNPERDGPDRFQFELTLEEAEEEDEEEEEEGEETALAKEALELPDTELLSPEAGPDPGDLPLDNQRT
Protocol: as §1

PDE4A = target: T3, PDE4A (Homo sapiens, UniProt P27815); assay: PDE enzymatic activity, HTRF cAMP dynamic test; assay type: biochemical; settings: 0.1 μM, 0.3 μM, 1 μM, 3 μM and 10 μM; compared with DMSO control; n=6; FIG. 1A
T3 construct: purchased BPS bioscience
T3 sequence (P27815 whole entry): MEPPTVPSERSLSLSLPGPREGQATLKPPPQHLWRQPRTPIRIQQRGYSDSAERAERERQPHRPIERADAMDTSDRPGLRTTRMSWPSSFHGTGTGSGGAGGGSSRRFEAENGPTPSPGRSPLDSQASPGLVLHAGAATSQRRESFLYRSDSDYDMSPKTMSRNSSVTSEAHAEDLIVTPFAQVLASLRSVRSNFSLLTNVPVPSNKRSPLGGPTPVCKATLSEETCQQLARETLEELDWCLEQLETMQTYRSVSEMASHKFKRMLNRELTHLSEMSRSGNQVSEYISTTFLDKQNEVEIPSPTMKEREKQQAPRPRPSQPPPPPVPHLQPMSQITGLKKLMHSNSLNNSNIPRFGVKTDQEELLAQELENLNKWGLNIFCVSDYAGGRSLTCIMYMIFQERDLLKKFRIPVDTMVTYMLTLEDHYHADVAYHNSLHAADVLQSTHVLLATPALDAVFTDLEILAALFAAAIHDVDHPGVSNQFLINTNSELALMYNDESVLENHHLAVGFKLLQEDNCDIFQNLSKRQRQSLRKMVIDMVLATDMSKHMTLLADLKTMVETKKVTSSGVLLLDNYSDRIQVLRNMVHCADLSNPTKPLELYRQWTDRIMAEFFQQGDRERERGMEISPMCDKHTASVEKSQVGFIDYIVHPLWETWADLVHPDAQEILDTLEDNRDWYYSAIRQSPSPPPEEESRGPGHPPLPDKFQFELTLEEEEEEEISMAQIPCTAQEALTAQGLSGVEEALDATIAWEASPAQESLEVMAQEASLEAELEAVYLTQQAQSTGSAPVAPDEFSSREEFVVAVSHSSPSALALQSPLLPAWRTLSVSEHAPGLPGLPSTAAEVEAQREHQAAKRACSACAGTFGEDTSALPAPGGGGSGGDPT
Protocol: as §1

PDE4D = target: T4, PDE4D (Homo sapiens, UniProt Q08499); assay: PDE enzymatic activity, HTRF cAMP dynamic test; assay type: biochemical; settings: 10 μM and 30 μM; compared with DMSO control; n=6; FIG. 1D
T4 construct: purchased BPS bioscience
T4 sequence (Q08499 whole entry): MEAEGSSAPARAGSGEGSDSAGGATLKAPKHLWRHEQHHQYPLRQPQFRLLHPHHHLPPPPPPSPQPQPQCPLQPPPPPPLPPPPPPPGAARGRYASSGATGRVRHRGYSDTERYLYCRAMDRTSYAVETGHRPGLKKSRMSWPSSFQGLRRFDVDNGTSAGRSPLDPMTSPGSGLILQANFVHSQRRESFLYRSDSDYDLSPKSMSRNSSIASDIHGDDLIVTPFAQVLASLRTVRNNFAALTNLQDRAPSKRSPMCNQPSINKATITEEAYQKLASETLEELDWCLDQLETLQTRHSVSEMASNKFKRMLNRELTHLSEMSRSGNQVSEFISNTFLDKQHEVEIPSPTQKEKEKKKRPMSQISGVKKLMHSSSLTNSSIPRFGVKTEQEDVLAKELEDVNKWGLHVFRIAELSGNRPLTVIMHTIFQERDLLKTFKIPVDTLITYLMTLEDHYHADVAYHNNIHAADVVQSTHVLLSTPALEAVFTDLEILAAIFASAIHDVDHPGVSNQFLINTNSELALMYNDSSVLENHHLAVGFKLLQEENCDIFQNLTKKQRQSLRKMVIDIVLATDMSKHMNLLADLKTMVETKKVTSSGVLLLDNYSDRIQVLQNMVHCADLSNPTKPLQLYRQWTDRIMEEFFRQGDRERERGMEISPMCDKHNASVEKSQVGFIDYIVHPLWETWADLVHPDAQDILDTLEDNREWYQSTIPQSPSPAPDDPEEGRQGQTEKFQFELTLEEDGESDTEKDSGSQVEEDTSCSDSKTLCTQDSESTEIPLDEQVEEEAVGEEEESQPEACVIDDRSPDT
Protocol: as §1

PDE3B = target: T5, PDE3B (Homo sapiens, UniProt Q13370); assay: PDE enzymatic activity, HTRF cAMP dynamic test; assay type: biochemical; settings: 0.1 to 30 μM; FIG. 1E
T5 construct: purchased BPS bioscience
T5 sequence (Q13370 whole entry): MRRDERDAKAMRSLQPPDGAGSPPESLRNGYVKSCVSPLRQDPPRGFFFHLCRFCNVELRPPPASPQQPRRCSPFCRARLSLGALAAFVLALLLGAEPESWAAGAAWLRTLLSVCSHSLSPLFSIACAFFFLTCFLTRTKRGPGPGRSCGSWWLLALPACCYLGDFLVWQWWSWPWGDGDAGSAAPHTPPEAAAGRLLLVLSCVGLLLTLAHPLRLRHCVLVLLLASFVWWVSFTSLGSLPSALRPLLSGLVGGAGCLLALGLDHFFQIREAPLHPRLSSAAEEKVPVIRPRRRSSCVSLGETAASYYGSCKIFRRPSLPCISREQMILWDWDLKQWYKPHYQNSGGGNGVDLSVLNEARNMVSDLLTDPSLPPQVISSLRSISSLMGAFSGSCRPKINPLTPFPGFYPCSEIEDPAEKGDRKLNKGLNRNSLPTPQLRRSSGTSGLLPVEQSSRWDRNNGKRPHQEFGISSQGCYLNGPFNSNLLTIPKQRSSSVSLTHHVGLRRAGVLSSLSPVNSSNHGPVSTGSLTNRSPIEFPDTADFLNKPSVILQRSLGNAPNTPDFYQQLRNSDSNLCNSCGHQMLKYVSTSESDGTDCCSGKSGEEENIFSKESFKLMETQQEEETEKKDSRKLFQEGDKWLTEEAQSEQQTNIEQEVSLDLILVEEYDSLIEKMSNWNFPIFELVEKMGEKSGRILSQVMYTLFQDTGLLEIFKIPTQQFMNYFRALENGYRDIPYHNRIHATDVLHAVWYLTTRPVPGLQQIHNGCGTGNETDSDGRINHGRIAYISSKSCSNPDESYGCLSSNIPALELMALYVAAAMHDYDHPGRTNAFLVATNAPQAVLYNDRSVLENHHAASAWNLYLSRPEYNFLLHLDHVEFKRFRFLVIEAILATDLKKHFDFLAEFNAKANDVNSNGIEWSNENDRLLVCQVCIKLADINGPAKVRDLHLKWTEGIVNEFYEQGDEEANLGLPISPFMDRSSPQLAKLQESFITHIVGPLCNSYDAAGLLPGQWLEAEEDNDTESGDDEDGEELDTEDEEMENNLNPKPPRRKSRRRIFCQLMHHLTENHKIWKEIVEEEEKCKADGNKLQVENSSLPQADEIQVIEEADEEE
Protocol: as §1

PDE4B = target: T6, PDE4B (Homo sapiens, UniProt Q07343); assay: PDE enzymatic activity, HTRF cAMP dynamic test; assay type: biochemical; settings: 3 μM, 10 μM and 30 μM; compared with DMSO control; n=6; FIG. 1B
T6 construct: purchased BPS bioscience
T6 sequence (Q07343 whole entry): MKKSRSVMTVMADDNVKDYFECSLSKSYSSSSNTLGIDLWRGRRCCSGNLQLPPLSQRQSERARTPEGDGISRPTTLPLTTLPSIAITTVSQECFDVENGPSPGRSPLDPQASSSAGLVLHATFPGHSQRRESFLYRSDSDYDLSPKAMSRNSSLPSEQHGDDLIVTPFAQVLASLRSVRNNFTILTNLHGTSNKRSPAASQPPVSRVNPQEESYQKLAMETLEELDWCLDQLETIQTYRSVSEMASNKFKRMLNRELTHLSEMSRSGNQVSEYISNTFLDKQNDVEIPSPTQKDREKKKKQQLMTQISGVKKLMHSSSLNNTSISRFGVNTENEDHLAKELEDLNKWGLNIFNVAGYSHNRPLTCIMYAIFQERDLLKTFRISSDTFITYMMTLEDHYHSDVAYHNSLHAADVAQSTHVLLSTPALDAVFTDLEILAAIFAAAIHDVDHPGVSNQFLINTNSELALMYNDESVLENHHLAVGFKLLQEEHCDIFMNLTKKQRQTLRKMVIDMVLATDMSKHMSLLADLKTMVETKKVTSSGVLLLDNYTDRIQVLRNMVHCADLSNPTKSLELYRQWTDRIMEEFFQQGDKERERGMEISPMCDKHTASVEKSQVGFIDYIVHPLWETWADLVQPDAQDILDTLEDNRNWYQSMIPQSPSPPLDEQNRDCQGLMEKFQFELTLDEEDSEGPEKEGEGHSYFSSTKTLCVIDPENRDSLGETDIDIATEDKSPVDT
Protocol: as §1

Human neutrophils = assay: Superoxide anion generation in fMLF-stimulated neutrophils (ferricytochrome c reduction); assay type: cell-based; settings: 1 μM, 3 μM and 10 μM; fMLF (0.1 μM)/cytochalasin B (1 μg/ml) stimulated; p<0.001 vs control; n=6; FIG. 2
Protocol: The informed consent to participate which was approved by the Institutional Review Board are signed by the donors. 50 mL of blood was collected from the median cubital vein of each donor by sterile vacutainer, and was used to isolate neutrophils for the following experiments. Human neutrophils (isolated from whole blood of donors) were incubated with DMSO (as solvent, marked as “−” in the groups at X-axis in FIGS. 2A and 2B) or Ribociclib (0.3-10 μM) for 5 minutes, and then stimulated the neutrophils with or without fMLF (0.1 μM)/cytochalasin B (CB, 1 μg/ml) for another 10 minutes to activate the neutrophils. The absorbance (OD550) of the reaction mixture was then measured by a spectrophotometer at OD 550 nm. The reading of OD550 is used to detect the reduction of ferricytochrome c, which indicates the amount of superoxide anion. Cytochalasin B was sold by Sigma-Aldrich, catalog number #2506; fMLF was sold by Sigma-Aldrich, catalog number #454454; model number of the spectrophotometer is HITACHI U-3010.

IMQ-treated mice = assay: Psoriasis-like symptoms in IMQ-treated mice; assay type: in vivo, BALB/c mice; settings: applied on back skin once per day for 5 days before IMQ, FIG. 3
Protocol: 250 μg or 500 μg of Ribociclib was dissolved in 50 μl of 0.5% (w/v) methylcellulose 400 solution to make a pharmaceutical composition. The Ribociclib concentration of the pharmaceutical composition was 250 μg/50 μl or 500 μg/50 μl and used in the subsequent animal experimental examples 4 and 5. Male BALB/c mice (7-9 weeks of age, the body weight of each mouse is about 25 g) were divided into different groups, and each group has 6 mice. Each mouse was epilation on the back and then treated with 50 μl of solvent (0.5% methylcellulose 400) or 50 μl of the pharmaceutical composition prepared in example 3 (the concentration of Ribociclib is 10 or 20 mg/kg of body weight) by applying on the nude back skin before topical treatment of imiquimod (IMQ, sold by 3M Health Care Limited). And then applying with or without IMQ on the nude back skin of mice to cause psoriasis-like symptom. Each treatment was given once per day for 5 consecutive days. The mice which applying solvent and IMQ is played as the control. The mice which merely applying solvent is played as the blank.

T1 sequence (Q13946 whole entry): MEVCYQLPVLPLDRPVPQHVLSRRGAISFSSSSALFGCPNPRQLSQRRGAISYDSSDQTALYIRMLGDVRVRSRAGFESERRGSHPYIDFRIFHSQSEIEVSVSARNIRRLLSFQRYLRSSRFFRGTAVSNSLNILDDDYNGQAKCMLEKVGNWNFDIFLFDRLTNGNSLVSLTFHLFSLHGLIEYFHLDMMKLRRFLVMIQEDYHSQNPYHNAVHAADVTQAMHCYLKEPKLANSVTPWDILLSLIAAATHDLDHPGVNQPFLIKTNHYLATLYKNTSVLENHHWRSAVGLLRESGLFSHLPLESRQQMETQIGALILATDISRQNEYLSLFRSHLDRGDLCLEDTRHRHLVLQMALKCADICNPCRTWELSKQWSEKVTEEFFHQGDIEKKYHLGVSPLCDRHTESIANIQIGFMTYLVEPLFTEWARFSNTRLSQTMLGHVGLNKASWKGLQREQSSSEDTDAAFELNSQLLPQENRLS

CN(C)C(=O)c1cc2cnc(Nc3ccc(N4CCNCC4)cn3)nc2n1C1CCCC1 [Ribociclib, 7-Cyclopentyl-N,N-dimethyl-2-{[5-(1-piperazinyl)-2-pyridinyl]amino}-7H-pyrrolo[2,3-d]pyrimidine-6-carboxamide] was tested, and the PDE7A activity (PDE7A) was “would not inhibit”, the PDE4C activity (PDE4C) was “significantly inhibit PDE4C activity” and the PDE4A activity (PDE4A) was “significantly inhibit PDE4A activity”. For the same molecule, the PDE4D activity (PDE4D) was “significantly inhibit PDE4D activity”, the PDE3B activity (PDE3B) was “would not inhibit” and the PDE4B activity (PDE4B) was “significantly inhibit PDE4B activity”. For the same molecule, the “generation of superoxide anion” value (Human neutrophils) was “significantly restrict the generation of superoxide anion”, the psoriasis-like symptoms (IMQ-treated mice; 10 mg/kg of the body weight) was “can improve or cure the psoriasis-like symptoms” and the psoriasis-like symptoms (IMQ-treated mice; 20 mg/kg of the body weight) was “can improve or cure the psoriasis-like symptoms”.
